Measured values reported in ChEMBL document CHEMBL4007451, “The 2014 Philip S. Portoghese Medicinal Chemistry Lectureship: The "Phenylalkylaminome" with a Focus on Selected Drugs of Abuse” (J Med Chem, 2017).

How the values were obtained:
[1] = molecular target: 5-hydroxytryptamine receptor 6 (Homo sapiens, UniProt P50406); test: Displacement of [3H]LSD from human 5HT6 receptor expressed in HEK293 cells; format: cell-based
[2] = molecular target: T1, 5-hydroxytryptamine receptor 1A (Homo sapiens, UniProt P08908); test: Binding affinity to 5-HT1A receptor (unknown origin)
T1 sequence (P08908 whole entry): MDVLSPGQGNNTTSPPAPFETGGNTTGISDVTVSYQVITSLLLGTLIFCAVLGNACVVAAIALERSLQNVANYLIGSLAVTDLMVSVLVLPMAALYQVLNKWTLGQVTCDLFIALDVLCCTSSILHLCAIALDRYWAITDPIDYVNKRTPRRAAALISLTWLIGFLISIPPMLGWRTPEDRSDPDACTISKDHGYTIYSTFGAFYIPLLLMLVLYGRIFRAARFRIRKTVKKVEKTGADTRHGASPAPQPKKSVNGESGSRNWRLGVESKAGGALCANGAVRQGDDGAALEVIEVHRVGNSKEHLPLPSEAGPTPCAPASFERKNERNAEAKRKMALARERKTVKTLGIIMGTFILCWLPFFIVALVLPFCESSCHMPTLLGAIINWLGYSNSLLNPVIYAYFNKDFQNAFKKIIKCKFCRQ

[3] = molecular target: Trace amine-associated receptor 1 (Rattus norvegicus, UniProt Q923Y9); test: Agonist activity at rat N-terminal FLAG-tagged TAAR1 expressed in HEK293 cells assessed as [3H]cAMP accumulation measured after 1 hr; format: functional, cell-based
Rattus norvegicus [4] = species: Rattus norvegicus; test: Induction of stimulus generalization in rat trained to discriminate S(+)methamphetamine assessed as appropriate responding level to training drug by two lever method; format: functional
Rattus norvegicus [5] = species: Rattus norvegicus; test: Induction of stimulus generalization in Sprague-Dawley rat trained to discriminate TDIQ assessed as appropriate responding level to training drug by two lever method; format: functional
Rattus norvegicus [6] = species: Rattus norvegicus; test: Induction of stimulus generalization in Sprague-Dawley rat trained to discriminate S(-)MCAT assessed as appropriate responding level to training drug by two lever method; format: functional
Rattus norvegicus [7] = species: Rattus norvegicus; test: Induction of stimulus generalization in Sprague-Dawley rat trained to discriminate S(+)AMPH assessed as appropriate responding level to training drug by two lever method; format: functional
Mus musculus = test: Anxiolytic-like activity in iv dosed ICR mouse assessed as increase in marbles left uncovered measured after 30 mins by marble burying assay; format: functional; conditions: 0.5 h
[8] = molecular target: T2, Alpha-2B adrenergic receptor (Homo sapiens, UniProt P18089); test: Binding affinity to alpha-2B receptor (unknown origin)
T2 sequence (P18089 whole entry): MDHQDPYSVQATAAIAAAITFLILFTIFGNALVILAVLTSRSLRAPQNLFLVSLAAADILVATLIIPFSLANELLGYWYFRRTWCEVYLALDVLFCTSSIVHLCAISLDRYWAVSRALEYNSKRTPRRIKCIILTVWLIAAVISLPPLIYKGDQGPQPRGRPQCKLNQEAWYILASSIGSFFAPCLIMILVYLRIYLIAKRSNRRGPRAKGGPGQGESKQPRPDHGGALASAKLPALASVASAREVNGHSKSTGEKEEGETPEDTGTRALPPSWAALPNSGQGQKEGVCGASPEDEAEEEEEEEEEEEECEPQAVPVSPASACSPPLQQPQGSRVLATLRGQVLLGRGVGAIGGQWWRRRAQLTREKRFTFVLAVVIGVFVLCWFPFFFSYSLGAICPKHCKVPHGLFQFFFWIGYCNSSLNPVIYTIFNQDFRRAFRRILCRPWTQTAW

[9] = molecular target: T3, Alpha-2A adrenergic receptor (Homo sapiens, UniProt P08913); test: Binding affinity to alpha-2A receptor (unknown origin)
T3 sequence (P08913 whole entry): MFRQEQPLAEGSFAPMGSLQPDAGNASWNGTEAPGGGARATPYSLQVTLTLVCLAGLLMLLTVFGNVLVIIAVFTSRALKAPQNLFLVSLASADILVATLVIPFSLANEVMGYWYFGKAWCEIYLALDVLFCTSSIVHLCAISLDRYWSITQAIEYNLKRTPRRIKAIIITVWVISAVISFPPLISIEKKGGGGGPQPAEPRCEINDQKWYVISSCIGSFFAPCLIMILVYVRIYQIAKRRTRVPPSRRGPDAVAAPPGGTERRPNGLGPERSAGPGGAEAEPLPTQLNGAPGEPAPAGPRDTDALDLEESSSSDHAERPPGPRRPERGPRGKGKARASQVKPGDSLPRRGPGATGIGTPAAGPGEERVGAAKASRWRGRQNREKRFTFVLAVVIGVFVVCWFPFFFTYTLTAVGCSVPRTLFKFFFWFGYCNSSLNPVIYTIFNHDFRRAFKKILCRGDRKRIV

[10] = molecular target: T4, Alpha-2C adrenergic receptor (Homo sapiens, UniProt P18825); test: Binding affinity to alpha-2C receptor (unknown origin)
T4 sequence (P18825 whole entry): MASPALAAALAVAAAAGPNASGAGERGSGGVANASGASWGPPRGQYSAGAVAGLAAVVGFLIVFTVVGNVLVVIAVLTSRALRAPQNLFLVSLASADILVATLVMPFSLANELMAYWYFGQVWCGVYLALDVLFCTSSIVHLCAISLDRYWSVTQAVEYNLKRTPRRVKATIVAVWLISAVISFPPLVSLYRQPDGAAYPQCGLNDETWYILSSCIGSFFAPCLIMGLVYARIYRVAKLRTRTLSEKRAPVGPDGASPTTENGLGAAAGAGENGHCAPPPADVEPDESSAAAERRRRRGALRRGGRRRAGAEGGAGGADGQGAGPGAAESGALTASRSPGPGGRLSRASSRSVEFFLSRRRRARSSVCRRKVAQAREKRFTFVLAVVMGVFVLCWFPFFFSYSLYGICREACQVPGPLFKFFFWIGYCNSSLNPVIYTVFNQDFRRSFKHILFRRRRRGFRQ

[11] = molecular target: Sodium-dependent dopamine transporter (Rattus norvegicus, UniProt P23977); test: Inhibition of DAT in Sprague-Dawley rat synaptosomes assessed as reduction in [3H]dopamine uptake by liquid scintillation counting method; format: subcellular
Rattus norvegicus [12] = test: In vivo agonist activity at 5HT2A in ip dosed DOM-trained Sprague-Dawley rat assessed as increase in discriminative stimulus pretreated before testing; format: functional
[13] = molecular target: T5, 5-hydroxytryptamine receptor 2A (Rattus norvegicus, UniProt P14842); test: Displacement of [125I]DOI from rat cortex 5HT2A after 1 hr by beta scintillation counting method
Rhesus monkey = test: In vivo agonist activity at 5HT2A in DOM-trained rhesus monkey assessed as increase in discriminative stimulus administered subcutaneously pretreated before testing; format: functional; conditions: Macaca mulatta, sc
[14] = molecular target: T5, 5-hydroxytryptamine receptor 2A; test: Displacement of [3H]ketanserin from 5HT2A in Sprague-Dawley rat cortex membranes measured after 15 mins; format: cell membranes

T5 sequence (P14842 whole entry): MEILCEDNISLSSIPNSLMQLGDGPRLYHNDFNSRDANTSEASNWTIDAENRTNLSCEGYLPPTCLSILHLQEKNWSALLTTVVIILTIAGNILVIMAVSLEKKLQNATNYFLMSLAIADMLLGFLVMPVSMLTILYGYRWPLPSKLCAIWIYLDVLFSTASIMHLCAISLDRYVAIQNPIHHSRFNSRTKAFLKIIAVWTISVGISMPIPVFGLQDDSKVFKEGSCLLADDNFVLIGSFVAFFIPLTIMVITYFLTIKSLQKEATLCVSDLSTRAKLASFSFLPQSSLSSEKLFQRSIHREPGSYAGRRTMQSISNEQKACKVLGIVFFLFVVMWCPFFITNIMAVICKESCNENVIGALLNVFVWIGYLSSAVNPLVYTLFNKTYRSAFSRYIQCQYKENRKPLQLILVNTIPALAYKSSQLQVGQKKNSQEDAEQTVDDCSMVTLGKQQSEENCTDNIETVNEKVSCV
5-hydroxytryptamine receptor 6, sequence (P50406 whole entry): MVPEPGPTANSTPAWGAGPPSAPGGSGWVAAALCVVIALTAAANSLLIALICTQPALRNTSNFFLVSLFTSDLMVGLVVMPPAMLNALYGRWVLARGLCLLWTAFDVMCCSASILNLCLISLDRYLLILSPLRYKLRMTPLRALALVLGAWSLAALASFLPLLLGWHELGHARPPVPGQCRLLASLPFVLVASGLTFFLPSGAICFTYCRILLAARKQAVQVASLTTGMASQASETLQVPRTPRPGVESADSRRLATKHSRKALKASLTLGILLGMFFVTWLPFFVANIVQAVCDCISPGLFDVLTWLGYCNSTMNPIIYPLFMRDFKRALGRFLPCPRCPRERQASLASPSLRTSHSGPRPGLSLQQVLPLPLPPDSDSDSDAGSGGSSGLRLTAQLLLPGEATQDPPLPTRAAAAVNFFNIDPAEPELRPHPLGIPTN
Trace amine-associated receptor 1, sequence (Q923Y9 whole entry): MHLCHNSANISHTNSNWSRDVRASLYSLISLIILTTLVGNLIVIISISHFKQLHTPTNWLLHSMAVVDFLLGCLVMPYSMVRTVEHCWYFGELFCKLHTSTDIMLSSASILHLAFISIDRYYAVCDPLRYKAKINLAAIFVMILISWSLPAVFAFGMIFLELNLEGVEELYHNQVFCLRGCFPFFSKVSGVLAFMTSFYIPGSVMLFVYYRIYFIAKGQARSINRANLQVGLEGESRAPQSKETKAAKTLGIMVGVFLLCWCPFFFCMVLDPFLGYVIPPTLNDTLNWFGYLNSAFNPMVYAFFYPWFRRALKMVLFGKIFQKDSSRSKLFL
Sodium-dependent dopamine transporter, sequence (P23977 whole entry): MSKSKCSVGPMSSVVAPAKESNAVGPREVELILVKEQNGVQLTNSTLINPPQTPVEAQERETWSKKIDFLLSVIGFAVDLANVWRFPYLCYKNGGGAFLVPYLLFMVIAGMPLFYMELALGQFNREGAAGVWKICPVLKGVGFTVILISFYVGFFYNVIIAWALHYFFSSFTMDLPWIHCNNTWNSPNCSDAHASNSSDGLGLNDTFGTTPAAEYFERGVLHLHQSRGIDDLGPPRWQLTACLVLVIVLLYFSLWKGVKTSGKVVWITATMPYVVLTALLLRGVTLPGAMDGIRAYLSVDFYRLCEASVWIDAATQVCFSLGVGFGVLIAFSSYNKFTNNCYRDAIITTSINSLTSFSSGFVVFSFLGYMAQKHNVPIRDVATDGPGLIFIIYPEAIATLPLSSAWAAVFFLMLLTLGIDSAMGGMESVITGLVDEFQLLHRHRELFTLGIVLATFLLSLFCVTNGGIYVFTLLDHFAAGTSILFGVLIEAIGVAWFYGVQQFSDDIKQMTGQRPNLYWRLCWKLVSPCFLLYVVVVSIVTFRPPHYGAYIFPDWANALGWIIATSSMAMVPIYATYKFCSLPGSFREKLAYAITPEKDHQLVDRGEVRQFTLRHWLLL

Question: How did the Ki [1] turn out when `NC1CCc2c(cccc2NS(=O)(=O)c2ccccc2)C1` (stereo not drawn) was run?
Answer: The Ki was 49 nM.

Question: With `CCCN(CCC)CCc1ccccc1O` as the molecule, how does the Ki [2] read?
Answer: Its Ki is 400 nM.

Question: `NCCc1ccccc1` [PHENETHYLAMINE] was tested. Which EC50 [3] did it give?
Answer: Its EC50 is 240 nM.

Question: `COC(=O)[C@H]1[C@@H](OC(=O)c2ccccc2)C[C@@H]2CC[C@H]1N2C` [COCAINE] was tested. Which ED50 (Rattus norvegicus [4]) did it give?
Answer: The ED50 was 3.68 to 6.68 mg/kg.

Question: And the ED50 (Rattus norvegicus [5])?
Answer: The ED50 was 1.5 mg/kg.

Question: What about the ED50 (Rattus norvegicus [6]) of the same molecule?
Answer: The ED50 was 1.47 mg/kg.

Question: And the ED50 (Rattus norvegicus [7])?
Answer: The ED50 was 5.63 mg/kg.

Question: Which ED50 (Mus musculus) does the source give for `c1c2c(cc3c1OCO3)CNCC2` here?
Answer: The ED50 was 0.2 mg/kg.

Question: What about the Ki [8] of the same molecule?
Answer: Its Ki is < 100 nM.

Question: And the Ki [9]?
Answer: Its Ki is < 100 nM.

Question: And the Ki [10]?
Answer: The Ki was < 100 nM.

Question: `CCCNCCc1ccccc1O` was tested. Which Ki [2] did it give?
Answer: The Ki was > 1000 nM.

Question: For `CCC[C@@H](C(=O)c1ccc2c(c1)OCO2)N1CCCC1`, which IC50 [11] is on record?
Answer: The IC50 was 2.1 nM.

Question: What does the source list for `C[C@H](N)Cn1ncc2ccc3c(c21)CCCO3`?
Answer: ED50 (Rattus norvegicus [12]): 0.05 mg/kg; Ki [13]: 0.13 nM; ED50 (Rhesus monkey): 0.04 mg/kg

Question: For `COc1cc(CC(C)N(C)C)c(OC)cc1Br` (stereo not drawn), which Ki [14] is on record?
Answer: The Ki was 380 nM.

Question: Which Ki [1] does the source give for `NCCc1ccc(S(=O)(=O)n2ccc3ccccc32)cc1` here?
Answer: The Ki was 2.5 nM.
